Laboratory results from patent US20080182851A1, “ACETYLENE DERIVATIVES AS STEAROYL COA DESATURASE INHIBITORS” (Glenmark Pharmaceuticals S.A., priority 2006, published 2008).

The molecules below were run against T1, human SCD1 enzyme (Homo sapiens, UniProt O00767) (assay: Tritiated water release assay (conversion of radiolabeled stearoyl-CoA to oleoyl-CoA)). Conditions: 10 μM concentration of test compounds; microsomal SCD1, 3H stearoyl CoA, 37° C. 30 minutes; percent of control reaction; read-out: % Inhibition.
T1 sequence (O00767 1-359): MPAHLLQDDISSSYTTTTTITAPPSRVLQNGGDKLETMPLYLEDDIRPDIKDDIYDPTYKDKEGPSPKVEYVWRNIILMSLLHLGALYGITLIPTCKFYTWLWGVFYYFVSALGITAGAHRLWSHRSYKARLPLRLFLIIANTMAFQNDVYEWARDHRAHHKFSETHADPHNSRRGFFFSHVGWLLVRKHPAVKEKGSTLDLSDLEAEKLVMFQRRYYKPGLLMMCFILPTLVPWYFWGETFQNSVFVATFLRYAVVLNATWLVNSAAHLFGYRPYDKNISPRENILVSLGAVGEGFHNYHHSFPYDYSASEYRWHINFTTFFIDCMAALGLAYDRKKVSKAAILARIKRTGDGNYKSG
Assay type: biochemical
Experimental: The in-vitro activity of the compounds of the present invention against stearoyl coenzyme desaturase was determined by following conversion of radiolabeled-stearoyl-CoA to oleoyl-CoA using human SCD1 enzyme using a previously published assay procedure with some modifications (Barbara R Talamo and Konrad Bloch, Analytical Biochemistry, 1969, 29, 300-304). This assay protocol is only illustrative and is not meant to limit to the scope of the present invention.
In this assay the microsomal SCD1 enzyme desaturates its substrate, Stearoyl CoA (purchased from American Radiochemicals Ltd.) which is tritiated at C9 and C10 positions. Test compounds were dissolved in dimethylsulfoxide and tested at 10 μM final concentration. Before substrate addition, the test compound or standard reference compound (conjugated linoleic acid at 100 μM final concentration) were pre-incubated in reaction buffer with the enzyme for 10 minutes at 30° C. with shaking. Reaction buffer was prepared as described in literature (Obukowicz et al. JPET, 1998, 287, 157-166) except that the MgCl2, ATP (purchased from Sigma) and CoA (purchased from Sigma) concentrations were changed to 4.9 mM, 7.2 mM and 0.54 mM respectively. The desaturation reaction was initiated by addition of 0.5 μCi of ^3H stearoyl CoA and incubated at 37° C. for 30 minutes with shaking. A control reaction was set without any test compound/reference inhibitor to capture maximum enzymatic activity in the assay. Inhibition of enzyme activity was calculated as a percent of this control reaction giving maximum catalysis and the results are given in Table 5.
Table 5: Tritiated water release assay at 10 μM substrate concentration *Conjugated Linoleic acid was used as a reference standard

SMILES	inhibition at 10 µM
CC(=O)Oc1cccc(C#Cc2ccc(N3CCC(Oc4ccccc4F)C3)nn2)c1 (stereo in doubt) [Example 68, 3-(2-{6-[(3S)-3-(2-Fluorophenoxy)azolan-1-yl]-3-pyridazinyl}-1-ethynyl)phenyl acetate]	92%
CC(=O)Oc1ccc(C#Cc2ccc(N3CCC(Oc4ccccc4F)C3)nn2)cc1 (stereo in doubt) [Example 70, 4-[{6-[(3S)-3-(2-Fluorophenoxy)azolan-1-yl]pyridazin-3-yl}ethynyl]phenyl acetate]	96%
Oc1ccc(C#Cc2ccc(N3CCC(Oc4ccccc4F)C3)nn2)cc1 (stereo in doubt) [Example 71, 4-[{6-[(3S)-3-(2-Fluorophenoxy)azolan-1-yl]pyridazin-3-yl}ethynyl]phenol]	95%
O=C(c1ccccc1C(F)(F)F)N1CCN(c2ccc(C#CCO)cn2)CC1 [Example 1, 4-[5-(3-Hydroxy-1-propynyl)-2-pyridyl]piperazino-2-trifluoromethylphenylmethanone]	36%
O=C(c1cc(Cl)ccc1Cl)N1CCN(c2ccc(C#CCO)cn2)CC1 [Example 2, 4-[5-(3-Hydroxy-1-propynyl)-2-pyridyl]piperazino-2,5-dichlorophenylmethanone]	57%
O=C(c1ccccc1C(F)(F)F)N1CCN(c2ccc(C#CCO)nn2)CC1 [Example 3, 4-[6-(3-Hydroxy-1-propynyl)-3-pyridazinyl]piperazino-2-trifluoromethylphenyl-methanone]	51%
CC(C)(O)C#Cc1cnc(N2CCN(C(=O)c3ccccc3C(F)(F)F)CC2)nc1 [Example 4, 4-[5-(3-Hydroxy-3-methyl-1-butynyl)-2-pyrimidinyl]piperazino-2-trifluoromethylphenyl-methanone]	22%
O=C(c1ccccc1C(F)(F)F)N1CCN(c2ccc(C#CC3(O)CCCC3)cn2)CC1 [Example 5, 4-{5-[2-(1-Hydroxycyclopentyl)-1-ethynyl]-2-pyridyl}piperazino-2-trifluoromethyl phenylmethanone]	19%
CCC(O)C#Cc1ccc(N2CCN(C(=O)c3ccccc3C(F)(F)F)CC2)nc1 (centres unmarked) [Example 6, 4-[5-(3-Hydroxy-1-pentynyl)-2-pyridyl]piperazino-2-trifluoromethylphenylmethanone]	24%
O=C(c1ccccc1C(F)(F)F)N1CCN(c2ccc(C#CC(O)C34CC5CC(CC(C5)C3)C4)cn2)CC1 (centres unmarked) [Example 7, 4-[5-{3-Hydroxy-3-(1-adamantyl)-1-propynyl}-2-pyridyl]piperazino-2-trifluoromethyl-phenylmethanone]	0.35%
O=C(c1ccccc1C(F)(F)F)N1CCN(c2ccc(C#CC(O)c3ccccc3)cn2)CC1 (centres unmarked) [Example 8, 4-[5-(3-Hydroxy-3-phenyl-1-propynyl}-2-pyridyl}piperazino-2-trifluoromethylphenyl-methanone]	42%
O=C(c1ccccc1C(F)(F)F)N1CCN(c2ccc(C#CCOC3CCCC3)cn2)CC1 [Example 9, 4-[5-(3-Cyclopentyloxy-1-propynyl)-2-pyridyl]piperazino-2-trifluoromethylphenyl-methanone]	86%
CC(C)(C)c1ccc(OCC#Cc2ccc(N3CCN(C(=O)c4ccccc4C(F)(F)F)CC3)nc2)cc1 [Example 10]	37%
O=C(c1ccccc1C(F)(F)F)N1CCN(c2ccc(C#CCOc3ccc(F)cc3)cn2)CC1 [Example 11, 4-[5-(3-(4-Fluorophenoxy)-1-propynyl)-2-pyridyl]piperazino-2-trifluoromethylphenyl-methanone]	63%
N#Cc1ccc(OCC#Cc2ccc(N3CCN(C(=O)c4ccccc4C(F)(F)F)CC3)nc2)nc1 [Example 12]	11%
O=C(c1ccccc1C(F)(F)F)N1CCN(c2ccc(C#CCOc3ccc(O)cc3)cn2)CC1 [Example 13]	92%
Fc1ccc(OCC#Cc2ccc(N3CCN(c4ccc(C(F)(F)F)cn4)CC3)nc2)cc1 [Example 14, 1-{5-[3-(4-Fluorophenoxy)prop-1-yn-1-yl]-2-pyridyl}-4-(5-trifluoromethylpyridin-2-yl)piperazine]	35%
CC(=O)NCC#Cc1ccc(N2CCN(C(=O)c3ccccc3C(F)(F)F)CC2)nc1 [Example 15, N1-(3-{6-[4-(2-Trifluoromethylbenzoyl)piperazino]-3-pyridyl}-2-propynyl)acetamide]	49%

SMILES	inhibition at 10 µM
CCCCS(=O)(=O)NCC#Cc1ccc(N2CCN(C(=O)c3ccccc3C(F)(F)F)CC2)nc1 [Example 16, N1-(3-{6-[4-(2-Trifluoromethylbenzoyl)piperazino]-3-pyridyl}-2-propynyl)-1-butane sulfonamide]	42%
CCCC#Cc1ccc(N2CCN(C(=O)c3ccccc3C(F)(F)F)CC2)nc1 [Example 17, 4-[5-(1-Pentynyl)-2-pyridyl]piperazino-2-trifluoromethylphenylmethanone]	40%
CC(C)(C)C#Cc1ccc(N2CCN(C(=O)c3ccccc3C(F)(F)F)CC2)nc1 [Example 18, 4-[5-(3,3-Dimethyl-1-butynyl)-2-pyridyl]piperazino-2-trifluoromethylphenylmethanone]	26%
CC(C)(C)C#Cc1ccc(N2CCN(C(=O)c3cc(Cl)ccc3Cl)CC2)nc1 [Example 19, 2,5-Dichlorophenyl-4-[5-(3,3-dimethyl-1-butynyl)-2-pyridyl]piperazinomethanone]	14%
O=C(c1ccccc1C(F)(F)F)N1CCN(c2ccc(C#Cc3ccccc3)cn2)CC1 [Example 20, 4-[5-(2-Phenyl-1-ethynyl)-2-pyridyl]piperazino-2-trifluoromethylphenylmethanone]	38%
O=C(c1cc(Cl)ccc1Cl)N1CCN(c2ccc(C#Cc3ccccc3)cn2)CC1 [Example 21, 2,5-Dichlorophenyl-4-[5-(2-phenyl-1-ethynyl)-2-pyridyl]piperazinomethanone]	40%
CC(=O)Oc1ccc(C#Cc2ccc(N3CCN(C(=O)c4ccccc4C(F)(F)F)CC3)nc2)cc1 [Example 22]	84%
O=C(c1ccccc1C(F)(F)F)N1CCN(c2ccc(C#Cc3ccc(O)cc3)cn2)CC1 [Example 23, 4-{5-[2-(4-Hydroxyphenyl)-1-ethynyl]-2-pyridyl}piperazino-2-trifluoromethylphenyl methanone]	91%
O=C(c1ccccc1C(F)(F)F)N1CCN(c2ccc(C#Cc3ccc(O)c(F)c3)cn2)CC1 [Example 24, 1-{5-[(3-Fluoro-4-hydroxyphenyl)ethynyl]-2-pyridyl}piperazin-4-yl-(2-trifluoromethylphenyl)methanone]	79%
O=C(c1ccccc1C(F)(F)F)N1CCN(c2ccc(C#Cc3cccc(O)c3)cn2)CC1 [Example 25, 4-{5-[2-(3-Hydroxyphenyl)-1-ethynyl]-2-pyridyl}piperazino-2-trifluoromethylphenyl methanone]	97%
CCOC(=O)COc1cccc(C#Cc2ccc(N3CCN(C(=O)c4ccccc4C(F)(F)F)CC3)nc2)c1 [Example 26, Ethyl-2-[3-(2-{6-[4-(2-trifluoromethylbenzoyl)piperazino]-3-pyridyl}-1-ethynyl)-phenoxy]acetate]	27%
O=C(O)COc1cccc(C#Cc2ccc(N3CCN(C(=O)c4ccccc4C(F)(F)F)CC3)nc2)c1 [Example 27, 2-[3-(2-{6-[4-(2-Trifluoromethylbenzoyl)piperazino]-3-pyridyl}-1-ethynyl)phenoxy]-acetic acid]	30%
O=C(c1cc(Cl)ccc1Cl)N1CCN(c2ccc(C#Cc3cccc(O)c3)cn2)CC1 [Example 28]	98%
CC(=O)Oc1ccccc1C#Cc1ccc(N2CCN(C(=O)c3ccccc3C(F)(F)F)CC2)nc1 [Example 29]	24%
COc1ccc(C#Cc2ccc(N3CCN(C(=O)c4ccccc4C(F)(F)F)CC3)nc2)cc1 [Example 30, 4-{5-[2-(4-Methoxyphenyl)-1-ethynyl]-2-pyridyl}piperazino-2-trifluoromethylphenyl methanone]	26%
COc1cccc(C#Cc2ccc(N3CCN(C(=O)c4cc(Cl)ccc4Cl)CC3)nc2)c1 [Example 31, 2,5-Dichlorophenyl-4-{5-[2-(3-methoxyphenyl)-1-ethynyl]-2-pyridyl}piperazino-methanone]	21%
COC(=O)c1ccc(C#Cc2ccc(N3CCN(C(=O)c4ccccc4C(F)(F)F)CC3)nc2)cc1 [Example 32]	35%
